System: 922993-354-T-J3-PDC complex spheroids, viability
Assay: Anticancer human tumor 922993-354-T-J3-PDC patient-derived endometrial carcinoma cell line growth inhibition [GQUAD]
Details: for IC50: curve of first compound; for viability, T/C: stronger effect = lower value
Procedure, shortened: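 Viability of tumor cells grown as complex spheroids with endothelial and stromal cells, exposed to drug combinations. Top concentration at or near clinical Cmax (else 10 microM), diluted in half-log increments.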
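Further: spheroids exposed to compounds for seven days.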
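Wherever viability, T/C is given: 100% = DMSO vehicle control viability.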

C#Cc1c(F)ccc2cc(O)cc(-c3ncc4c(N5CC6CCC(C5)N6)nc(OCC56CCCN5CC(F)C6)nc4c3F)c12 (configuration not stated) + Cc1[nH]c2ccc(F)cc2c1-c1nc2c3cccnc3c3ncccc3c2[nH]1
IC50 (second compound 0.0316 µM): > 10 µM | IC50 (second compound 0.1 µM): > 10 µM | IC50 (second compound 0.316 µM): > 10 µM | IC50 (second compound 1 µM): > 10 µM | IC50 (second compound 3.16 µM): > 10 µM | IC50 (second compound 10 µM): > 10 µM | viability, T/C (second compound 0.0316 µM, first compound 0.0316 µM): 112% | viability, T/C (second compound 0.0316 µM, first compound 0.1 µM): 93.3% | viability, T/C (second compound 0.0316 µM, first compound 0.316 µM): 106% | viability, T/C (second compound 0.0316 µM, first compound 1 µM): 98.2% | viability, T/C (second compound 0.0316 µM, first compound 3.16 µM): 96% | viability, T/C (second compound 0.0316 µM, first compound 10 µM): 80.7% | viability, T/C (second compound 0.1 µM, first compound 0.0316 µM): 103% | viability, T/C (second compound 0.1 µM, first compound 0.1 µM): 98.4% | viability, T/C (second compound 0.1 µM, first compound 0.316 µM): 94.7% | viability, T/C (second compound 0.1 µM, first compound 1 µM): 107% | viability, T/C (second compound 0.1 µM, first compound 3.16 µM): 116% | viability, T/C (second compound 0.1 µM, first compound 10 µM): 110% | viability, T/C (second compound 0.316 µM, first compound 0.0316 µM): 87% | viability, T/C (second compound 0.316 µM, first compound 0.1 µM): 88.8% | viability, T/C (second compound 0.316 µM, first compound 0.316 µM): 94% | viability, T/C (second compound 0.316 µM, first compound 1 µM): 99.2% | viability, T/C (second compound 0.316 µM, first compound 3.16 µM): 87.8% | viability, T/C (second compound 0.316 µM, first compound 10 µM): 124% | viability, T/C (second compound 1 µM, first compound 0.0316 µM): 83.4% | viability, T/C (second compound 1 µM, first compound 0.1 µM): 108% | viability, T/C (second compound 1 µM, first compound 0.316 µM): 99.5% | viability, T/C (second compound 1 µM, first compound 1 µM): 120% | viability, T/C (second compound 1 µM, first compound 3.16 µM): 125% | viability, T/C (second compound 1 µM, first compound 10 µM): 114% | viability, T/C (second compound 3.16 µM, first compound 0.0316 µM): 103% | viability, T/C (second compound 3.16 µM, first compound 0.1 µM): 87.6% | viability, T/C (second compound 3.16 µM, first compound 0.316 µM): 121% | viability, T/C (second compound 3.16 µM, first compound 1 µM): 107% | viability, T/C (second compound 3.16 µM, first compound 3.16 µM): 114% | viability, T/C (second compound 3.16 µM, first compound 10 µM): 113% | viability, T/C (second compound 10 µM, first compound 0.0316 µM): 91.6% | viability, T/C (second compound 10 µM, first compound 0.1 µM): 104% | viability, T/C (second compound 10 µM, first compound 0.316 µM): 101% | viability, T/C (second compound 10 µM, first compound 1 µM): 110% | viability, T/C (second compound 10 µM, first compound 3.16 µM): 127% | viability, T/C (second compound 10 µM, first compound 10 µM): 113%

Source: PubChem BioAssay AID2060489 (Molecular Pharmacology Branch, DTP, NCI, 2025)
